What was measured:
[1] = target: T1, GK-GKRP (glucokinase / glucokinase regulatory protein) (Homo sapiens, UniProt Q14397); assay: GKRP LC MS/MS Biochemical Assay (LCMS/MS); conditions: formation of 13C-glucose-6-phosphate from 13C-glucose by LC MS/MS, human His-hepatic GK, fructose-6-phosphate
T1 sequence (Q14397 1-625): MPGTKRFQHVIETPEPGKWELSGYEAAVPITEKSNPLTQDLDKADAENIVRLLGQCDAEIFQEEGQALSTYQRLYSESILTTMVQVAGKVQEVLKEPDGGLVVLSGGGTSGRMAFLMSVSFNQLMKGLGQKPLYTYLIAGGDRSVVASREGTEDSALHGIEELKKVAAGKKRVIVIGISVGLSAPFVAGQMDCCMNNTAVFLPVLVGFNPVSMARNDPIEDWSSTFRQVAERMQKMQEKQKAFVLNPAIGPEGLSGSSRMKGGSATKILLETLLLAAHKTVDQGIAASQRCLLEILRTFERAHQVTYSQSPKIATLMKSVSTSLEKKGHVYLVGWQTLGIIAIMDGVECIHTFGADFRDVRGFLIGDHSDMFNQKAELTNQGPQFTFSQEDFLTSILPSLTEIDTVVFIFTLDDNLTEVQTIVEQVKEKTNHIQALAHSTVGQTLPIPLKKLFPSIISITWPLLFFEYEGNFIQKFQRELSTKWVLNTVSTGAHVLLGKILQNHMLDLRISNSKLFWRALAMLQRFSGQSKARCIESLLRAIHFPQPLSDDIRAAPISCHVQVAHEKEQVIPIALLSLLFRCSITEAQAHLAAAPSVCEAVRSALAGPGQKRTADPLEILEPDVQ
Experimental: GKRP LC MS/MS Biochemical Assay (LCMS/MS)
This assay is used to directly measure the formation of ^13C-glucose-6-phosphate from ^13C-glucose by LC MS/MS. Begin by preparing the following solutions: Compound Buffer (CB): 50 mM Tris, pH 7.5/4 mM MgCl2/6% DMSO/fresh 10 mM DTT from 1M frozen stock. Enzyme Buffer (EB): 50 mM Tris, pH 7.5/4 mM MgCl2/6% DMSO/fresh 0.1% BSA/fresh 0.01% Brij-35 (10% BSA and 1% Brij-35 stock). GK (Glucokinase) Working Stock (5×): Dilute human His-hepatic GK to 30 nM in EB buffer. […] Seal the plate and incubate for 30 minutes at room temperature while mixing. After 30 minutes add 10 μl of GK Working Stock (5×). Re-seal the plate and incubate for another 30 minutes at room temperature while mixing. After the second 30 minutes, stop the reaction by the addition of 50 μl of 100% acetonitrile, seal, and mix for 5-10 minutes. Run 10 μl of this sample through the LC MS/MS (API 3200, Applied Biosystems, Carlsbad, Calif.). […]
(§1) In the Examples, the assays are referred to as “LCMS/MS” or “Binding.”

[2] = target: T2, GK-GKRP (interaction between glucokinase and glucokinase regulatory protein) (Homo sapiens, UniProt Q14397); assay: GK-GKRP Binding Assay (Binding), AlphaScreen; conditions: avi-tagged GKRP, GK-fluorescein, AlphaScreen beads, 1 μM sorbitol-6-phosphate; read-out: GK-GKRP IC50 (Binding)
T2 construct: made in house; host or cells: GKRP: baculovirus system
T2 sequence (Q14397 1-625): T1 sequence (Q14397 1-625)
Experimental: GK-GKRP Binding Assay Protocol (Binding)
This assay is used to directly measure the interaction between glucokinase (GK) and glucokinase regulatory protein (GKRP). Begin by preparing the following solutions. Assay Buffer: 20 mM Tris, pH 7.5/0.05% BSA/1 mM DTT/1 μM sorbitol-6-phosphate. […] Combine the following reagents in a white 96-well half area plate. Pipette 14 μl of the diluted avi-tagged GKRP into each well. Add 1 μl of compound to be tested and incubate at room temperature for 20 minutes. After 20 minutes, add 5 μl of assay buffer containing 6 nM GK-fluorescein. […] Incubate in a dark room for 2 hours at room temperature. After 2 hours read the plate using an Envision plate reader (Perkin Elmer, Waltham Mass.).
Recombinant human glucokinase (hepatic) was purified and formulated in 50 mM Tris (pH 7.5), 150 mM NaCl and 20 mM glucose previous to labeling with fluorescein. […] Unreacted dye was removed by extensive dialysis into the final formulation buffer: 25 mM Tris (pH 7.2), 150 mM NaCl, 10% glycerol and 2 mM DTT. The human glucokinase regulatory protein construct was designed with a C-terminal avitag and was expressed in a baculovirus system. Purified GKRP was incubated overnight with recombinant biotin ligase in the presence of D-biotin, ATP and MgCl2. GKRP was isolated from reaction components by chromatography on a Superdex 200 size exclusion column into: 50 mM HEPES, 150 mM NaCl and 5 mM DTT. […] Proteins were quantitated according to their calculated molar extinction coefficients at A280 and were stored at −80° C.
as §1

| EC50 [1] [nM] | IC50 [2] [nM] | SMILES |
| --- | --- | --- |
| 270 | 1400 | O=S(=O)(NC(c1ccccn1)c1cc2ccccc2o1)c1ccc2c(c1)OCCCO2 (racemic) [Example 25, N-(1-benzofuran-2-yl(2-pyridinyl)methyl)-3,4-dihydro-2H-1,5-benzo dioxepine-7-sulfonamide] |
| 190 | 420 | Cc1cccnc1C(NS(=O)(=O)c1ccc2c(c1)OCCCO2)c1cc2ccccc2o1 (racemic) [Example 26, N-(1-benzofuran-2-yl(3-methyl-2-pyridinyl)methyl)-3,4-dihydro-2H-1,5-benzodioxepine-7-sulfonamide] |
| 990 | 1800 | O=S(=O)(NC(c1ncccn1)c1cc2ccccc2o1)c1ccc2c(c1)OCCCO2 (racemic) [Example 29, N-(1-benzofuran-2-yl(2-pyrimidinyl)methyl)-3,4-dihydro-2H-1,5-benzodioxepine-7-sulfonamide] |
| 150 | 310 | COc1cccnc1C(NS(=O)(=O)c1ccc2c(c1)OCCCO2)c1cc2ccccc2o1 (racemic) [Example 30, N-(1-benzofuran-2-yl(3-methoxy-2-pyridinyl)methyl)-3,4-dihydro-2H-1,5-benzodioxepine-7-sulfonamide] |
| 740 | 3200 | O=S(=O)(NC(c1cc2ccccc2o1)c1cccs1)c1ccc2c(c1)OCCCO2 (racemic) [Example 31, N-(1-benzofuran-2-yl(2-thiophenyl)methyl)-3,4-dihydro-2H-1,5-benzodioxepine-7-sulfonamide] |
| 1200 | 1400 | Cc1ccsc1C(NS(=O)(=O)c1ccc2c(c1)OCCCO2)c1cc2ccccc2o1 (racemic) [Example 33, N-(1-benzofuran-2-yl(3-methyl-2-thiophenyl)methyl)-3,4-dihydro-2H-1,5-benzodioxepine-7-sulfonamide] |
| 2800 | 6600 | O=S(=O)(NC(c1cc2ccccc2o1)c1nccs1)c1ccc2c(c1)OCCCO2 (racemic) [Example 34, N-(1-benzofuran-2-yl(1,3-thiazol-2-yl)methyl)-3,4-dihydro-2H-1,5-benzodioxepine-7-sulfonamide] |
| 3100 | 2300 | O=S(=O)(NC(c1ccccc1)c1cc2ccccc2o1)c1ccc2c(c1)OCC(F)CO2 (racemic) [Example 35, N-(1-benzofuran-2-yl(phenyl)methyl)-3-fluoro-3,4-dihydro-2H-1,5-benzodioxepine-7-sulfonamide] |
| 150 | 290 | Cc1ccccc1C(NS(=O)(=O)c1ccc2c(c1)OCCCO2)c1cc2ccccc2s1 (racemic) [Example 36, N-(1-benzothiophen-2-yl(2-methylphenyl)methyl)-3,4-dihydro-2H-1,5-benzodioxepine-7-sulfonamide] |
| 160 | 300 | CCc1ccccc1C(NS(=O)(=O)c1ccc2c(c1)OCCCO2)c1cc2ccccc2s1 (racemic) [Example 37, N-(1-benzothiophen-2-yl(2-ethylphenyl)methyl)-3,4-dihydro-2H-1,5-benzodioxepine-7-sulfonamide] |
| 31 | 25 | C=Cc1ccccc1C(NS(=O)(=O)c1ccc2c(c1)OCCCO2)c1cc2ccccc2s1 (racemic) [Example 38, N-(1-benzothiophen-2-yl(2-ethenylphenyl)methyl)-3,4-dihydro-2H-1,5-benzodioxepine-7-sulfonamide] |
| 37 | 17 | C#Cc1ccccc1C(NS(=O)(=O)c1ccc2c(c1)OCCCO2)c1cc2ccccc2s1 (racemic) [Example 39, N-(1-benzothiophen-2-yl(2-ethynylphenyl)methyl)-3,4-dihydro-2H-1,5-benzodioxepine-7-sulfonamide] |
| 46 | 110 | COc1ccccc1C(NS(=O)(=O)c1ccc2c(c1)OCCCO2)c1cc2ccccc2s1 (racemic) [Example 40, N-(1-benzothiophen-2-yl(2-methoxyphenyl)methyl)-3,4-dihydro-2H-1,5-benzodioxepine-7-sulfonamide] |
| 27 | 57 | CSc1ccccc1C(NS(=O)(=O)c1ccc2c(c1)OCCCO2)c1cc2ccccc2s1 (racemic) [Example 41, N-(1-benzothiophen-2-yl(2-(methylsulfanyl)phenyl)methyl)-3,4-dihydro-2H-1,5-benzodioxepine-7-sulfonamide] |
| 47 | 41 | COc1cccnc1C(NS(=O)(=O)c1ccc2c(c1)OCCCO2)c1cc2ccccc2s1 (racemic) [Example 43, N-(1-benzothiophen-2-yl(3-methoxy-2-pyridinyl)methyl)-3,4-dihydro-2H-1,5-benzodioxepine-7-sulfonamide] |
| 480 | 1000 | Cc1c(C(NS(=O)(=O)c2ccc3c(c2)OCCCO3)c2ccccc2)oc2ccccc12 (racemic) [Example 44, N-((3-methyl-1-benzofuran-2-yl)(phenyl)methyl)-3,4-dihydro-2H-1,5-benzodioxepine-7-sulfonamide] |
| 2000 | 1700 | Cc1ccccc1C(NS(=O)(=O)c1ccc2c(c1)OCCCO2)c1oc2ccccc2c1C (racemic) [Example 45, N-((3-methyl-1-benzofuran-2-yl)(2-methylphenyl)methyl)-3,4-dihydro-2H-1,5-benzodioxepine-7-sulfonamide] |
| 220 | 360 | O=S(=O)(NC(c1ccccc1)c1cc2cccnc2s1)c1ccc2c(c1)OCCCO2 (racemic) [Example 46, N-(phenyl(thieno[2,3-b]pyridin-2-yl)methyl)-3,4-dihydro-2H-1,5-benzodioxepine-7-sulfonamide] |
| 59 | 27 | COc1ccccc1C(NS(=O)(=O)c1ccc2c(c1)OCCCO2)c1cc2cccnc2s1 (racemic) [Example 47, N-((2-methoxyphenyl)(thieno[2,3-b]pyridin-2-yl)methyl)-3,4-dihydro-2H-1,5-benzodioxepine-7-sulfonamide] |
| 22 | 10 | CSc1ccccc1C(NS(=O)(=O)c1ccc2c(c1)OCCCO2)c1cc2cccnc2s1 (racemic) [Example 48, N-((2-(methylsulfanyl)phenyl)(thieno[2,3-b]pyridin-2-yl)methyl)-3,4-dihydro-2H-1,5-benzodioxepine-7-sulfonamide] |
| 150 | 93 | COc1cccnc1C(NS(=O)(=O)c1ccc2c(c1)OCCCO2)c1cc2cccnc2s1 (racemic) [Example 49, N-((3-methoxy-2-pyridinyl)(thieno[2,3-b]pyridin-2-yl)methyl)-3,4-dihydro-2H-1,5-benzodioxepine-7-sulfonamide] |
| 480 | 410 | COc1cnccc1C(NS(=O)(=O)c1ccc2c(c1)OCCCO2)c1cc2cccnc2s1 (racemic) [Example 50, N-((3-methoxy-4-pyridinyl)(thieno[2,3-b]pyridin-2-yl)methyl)-3,4-dihydro-2H-1,5-benzodioxepine-7-sulfonamide] |
